≈ marks a conversion by molar mass, not a printed value.
Tested on: Bacillus anthracis
Test: Bactericidal activity against Bacillus anthracis
Type: functional
Conditions: not given

| Compound | EC50 |
| --- | --- |
| CC(C)NC(=O)N[C@H](CNC(=O)N[C@@H](CCCCN)CNC(=O)N[C@H](CNC(=O)N[C@H](CCNC(=O)N[C@@H](CCCCN)CNC(=O)N[C@H](CNC(=O)N[C@@H](CCCCN)CNC(=O)N[C@H](CCC(N)=O)C(C)C)Cc1c[nH]c2ccccc12)C(C)C)Cc1c[nH]c2ccccc12)C(C)C | 7 to 10 µg/mL (≈ 4.99 to 7.13 µM) |

Tested on: not listed separately
Test: Cytotoxicity against mouse RAW264.7 cells after 4 hrs by MTT assay
Type: cell-based
Conditions: read-out: TD50

| Compound | CC50 at 4 h |
| --- | --- |
| CC(C)NC(=O)N[C@H](CNC(=O)N[C@@H](CCCCN)CNC(=O)N[C@H](CNC(=O)N[C@H](CNC(=O)N[C@@H](CCCCN)CNC(=O)N[C@H](CNC(=O)N[C@@H](CCCCN)CNC(=O)N[C@H](CNC(N)=S)C(C)C)Cc1c[nH]c2ccccc12)C(C)C)Cc1c[nH]c2ccccc12)C(C)C | 21 µg/mL (≈ 14.9 µM) |
| CC(C)NC(=O)N[C@H](CNC(=O)N[C@@H](CCCCN)CNC(=O)N[C@H](CNC(=O)N[C@H](CNC(=O)N[C@@H](CCCCN)CNC(=O)N[C@H](CNC(=O)N[C@@H](CCCCN)CNC(=N)N[C@H](CCC(N)=O)C(C)C)Cc1c[nH]c2ccccc12)C(C)C)Cc1c[nH]c2ccccc12)C(C)C | 15 µg/mL (≈ 10.8 µM) |
| CC(C)NC(=O)N[C@H](CNC(=S)N[C@@H](CCCCN)CNC(=O)N[C@H](CNC(=O)N[C@H](CNC(=O)N[C@@H](CCCCN)CNC(=O)N[C@H](CNC(=O)N[C@@H](CCCCN)CNC(=O)N[C@H](CNC(N)=O)C(C)C)Cc1c[nH]c2ccccc12)C(C)C)Cc1c[nH]c2ccccc12)C(C)C | 26 µg/mL (≈ 18.5 µM) |
| CC(C)NC(=O)N[C@H](CNC(=O)N[C@@H](CCCCN)CNC(=O)N[C@H](CNC(=O)N[C@H](CNC(=O)N[C@@H](CCCCN)CNC(=O)N[C@H](CNC(=O)N[C@@H](CCCCN)CNC(=S)N[C@H](CCC(N)=O)C(C)C)Cc1c[nH]c2ccccc12)C(C)C)Cc1c[nH]c2ccccc12)C(C)C | 20.5 µg/mL (≈ 14.6 µM) |
| CC(C)NC(=O)N[C@H](CNC(=O)N[C@@H](CCCCN)CNC(=O)N[C@H](CNC(=O)N[C@H](CNC(=S)N[C@@H](CCCCN)CNC(=O)N[C@H](CNC(=O)N[C@@H](CCCCN)CNC(=O)N[C@H](CNC(N)=O)C(C)C)Cc1c[nH]c2ccccc12)C(C)C)Cc1c[nH]c2ccccc12)C(C)C | 28 µg/mL (≈ 19.9 µM) |

Source: ChEMBL document CHEMBL4052745 (Bioorg Med Chem, 2017)
